Results taken from ChEMBL document CHEMBL4507302, “Data for DCP probe TP-020” (2021).

Tests used:
[1] = molecular target: ALK tyrosine kinase receptor (Homo sapiens) (UniProt Q9UM73); conditions: Compound concentration 1000.0 nM
[2] = molecular target: Aurora kinase A (Homo sapiens) (UniProt O14965); conditions: Compound concentration 1000.0 nM
[3] = molecular target: Cyclin-dependent kinase 13 (Homo sapiens) (UniProt Q14004); conditions: Compound concentration 1000.0 nM
[4] = molecular target: Cyclin-dependent kinase 3 (Homo sapiens) (UniProt Q00526); conditions: Compound concentration 1000.0 nM
[5] = molecular target: Casein kinase I isoform epsilon (Homo sapiens) (UniProt P49674); conditions: Compound concentration 1000.0 nM
[6] = molecular target: Casein kinase II subunit alpha' (Homo sapiens) (UniProt P19784); conditions: Compound concentration 1000.0 nM
[7] = molecular target: Serine/threonine-protein kinase DCLK2 (Homo sapiens) (UniProt Q8N568); conditions: Compound concentration 1000.0 nM
[8] = molecular target: Serine/threonine-protein kinase DCLK3 (Homo sapiens) (UniProt Q9C098); conditions: Compound concentration 1000.0 nM
[9] = molecular target: Ephrin type-B receptor 3 (Homo sapiens) (UniProt P54753); conditions: Compound concentration 1000.0 nM
[10] = molecular target: Ephrin type-B receptor 6 (Homo sapiens) (UniProt O15197); conditions: Compound concentration 1000.0 nM
[11] = molecular target: Mitogen-activated protein kinase 4 (Homo sapiens) (UniProt P31152); conditions: Compound concentration 1000.0 nM
[12] = molecular target: Tyrosine-protein kinase Fer (Homo sapiens) (UniProt P16591); conditions: Compound concentration 1000.0 nM
[13] = molecular target: Beta-adrenergic receptor kinase 1 (Homo sapiens) (UniProt P25098); conditions: Compound concentration 1000.0 nM
[14] = molecular target: Rhodopsin kinase GRK7 (Homo sapiens) (UniProt Q8WTQ7); conditions: Compound concentration 1000.0 nM
[15] = molecular target: Homeodomain-interacting protein kinase 2 (Homo sapiens) (UniProt Q9H2X6); conditions: Compound concentration 1000.0 nM
[16] = molecular target: Hormonally up-regulated neu tumor-associated kinase (Homo sapiens) (UniProt P57058); conditions: Compound concentration 1000.0 nM
[17] = molecular target: Inhibitor of nuclear factor kappa-B kinase subunit beta (Homo sapiens) (UniProt O14920); conditions: Compound concentration 1000.0 nM
[18] = molecular target: Inhibitor of nuclear factor kappa-B kinase subunit epsilon (Homo sapiens) (UniProt Q14164); conditions: Compound concentration 1000.0 nM
Sequence of Inhibitor of nuclear factor kappa-B kinase subunit epsilon (Homo sapiens) (Q14164 whole entry): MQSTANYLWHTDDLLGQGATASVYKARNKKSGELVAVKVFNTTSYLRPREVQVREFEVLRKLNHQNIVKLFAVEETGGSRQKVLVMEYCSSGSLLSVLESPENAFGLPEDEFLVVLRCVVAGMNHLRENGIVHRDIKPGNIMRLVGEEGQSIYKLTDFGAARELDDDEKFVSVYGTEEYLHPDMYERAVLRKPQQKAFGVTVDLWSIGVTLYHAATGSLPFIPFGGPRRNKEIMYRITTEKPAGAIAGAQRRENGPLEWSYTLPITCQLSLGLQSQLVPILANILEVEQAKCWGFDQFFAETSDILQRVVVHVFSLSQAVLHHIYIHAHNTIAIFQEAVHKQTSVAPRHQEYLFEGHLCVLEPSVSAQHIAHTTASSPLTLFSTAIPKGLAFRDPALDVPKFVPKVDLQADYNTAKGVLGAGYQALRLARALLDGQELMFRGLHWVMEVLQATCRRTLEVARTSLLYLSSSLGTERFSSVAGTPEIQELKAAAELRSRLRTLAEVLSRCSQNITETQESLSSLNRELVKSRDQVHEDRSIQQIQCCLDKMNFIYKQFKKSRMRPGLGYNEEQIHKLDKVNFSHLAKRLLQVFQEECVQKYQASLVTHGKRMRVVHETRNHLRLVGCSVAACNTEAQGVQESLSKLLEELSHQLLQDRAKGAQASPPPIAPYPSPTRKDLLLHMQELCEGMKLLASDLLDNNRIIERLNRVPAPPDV

[19] = tested on: Mast/stem cell growth factor receptor Kit (Homo sapiens), P10721 [L576P]; conditions: Compound concentration 1000.0 nM
[20] = molecular target: Mast/stem cell growth factor receptor Kit (Homo sapiens) (UniProt P10721); conditions: Compound concentration 1000.0 nM
[21] = molecular target: Serine/threonine-protein kinase MAK (Homo sapiens) (UniProt P20794); conditions: Compound concentration 1000.0 nM
[22] = molecular target: Mitogen-activated protein kinase kinase kinase 4 (Homo sapiens) (UniProt Q9Y6R4); conditions: Compound concentration 1000.0 nM
[23] = molecular target: MAP kinase-activated protein kinase 2 (Homo sapiens) (UniProt P49137); conditions: Compound concentration 1000.0 nM
[24] = molecular target: Serine/threonine-protein kinase MARK1 (Homo sapiens) (UniProt Q9P0L2); conditions: Compound concentration 1000.0 nM
[25] = molecular target: Dual specificity mitogen-activated protein kinase kinase 4 (Homo sapiens) (UniProt P45985); conditions: Compound concentration 1000.0 nM
[26] = tested on: Hepatocyte growth factor receptor (Homo sapiens), P08581 [Y1235D]; conditions: Compound concentration 1000.0 nM
[27] = molecular target: Mitogen-activated protein kinase kinase kinase 11 (Homo sapiens) (UniProt Q16584); conditions: Compound concentration 1000.0 nM
[28] = molecular target: Serine/threonine-protein kinase MRCK beta (Homo sapiens) (UniProt Q9Y5S2); conditions: Compound concentration 1000.0 nM
[29] = molecular target: Serine/threonine-protein kinase 4 (Homo sapiens) (UniProt Q13043); conditions: Compound concentration 1000.0 nM
[30] = molecular target: Mitogen-activated protein kinase kinase kinase 14 (Homo sapiens) (UniProt Q99558); conditions: Compound concentration 1000.0 nM
[31] = molecular target: Serine/threonine-protein kinase PAK 1 (Homo sapiens) (UniProt Q13153); conditions: Compound concentration 1000.0 nM
[32] = molecular target: Platelet-derived growth factor receptor beta (Homo sapiens) (UniProt P09619); conditions: Compound concentration 1000.0 nM
[33] = tested on: Phosphatidylinositol 4,5-bisphosphate 3-kinase catalytic subunit alpha isoform (Homo sapiens), P42336 [E545K]; conditions: Compound concentration 1000.0 nM
[34] = molecular target: Phosphatidylinositol 4-phosphate 5-kinase type-1 gamma (Homo sapiens) (UniProt O60331); conditions: Compound concentration 1000.0 nM
[35] = molecular target: Ribosomal protein S6 kinase alpha-5 (Homo sapiens) (UniProt O75582); conditions: Compound concentration 1000.0 nM
[36] = molecular target: Ribosomal protein S6 kinase alpha-1 (Homo sapiens) (UniProt Q15418); conditions: Compound concentration 1000.0 nM
[37] = molecular target: Proto-oncogene tyrosine-protein kinase Src (Homo sapiens) (UniProt P12931); conditions: Compound concentration 1000.0 nM
Sequence of Proto-oncogene tyrosine-protein kinase Src (Homo sapiens) (P12931 2-536 limits assumed): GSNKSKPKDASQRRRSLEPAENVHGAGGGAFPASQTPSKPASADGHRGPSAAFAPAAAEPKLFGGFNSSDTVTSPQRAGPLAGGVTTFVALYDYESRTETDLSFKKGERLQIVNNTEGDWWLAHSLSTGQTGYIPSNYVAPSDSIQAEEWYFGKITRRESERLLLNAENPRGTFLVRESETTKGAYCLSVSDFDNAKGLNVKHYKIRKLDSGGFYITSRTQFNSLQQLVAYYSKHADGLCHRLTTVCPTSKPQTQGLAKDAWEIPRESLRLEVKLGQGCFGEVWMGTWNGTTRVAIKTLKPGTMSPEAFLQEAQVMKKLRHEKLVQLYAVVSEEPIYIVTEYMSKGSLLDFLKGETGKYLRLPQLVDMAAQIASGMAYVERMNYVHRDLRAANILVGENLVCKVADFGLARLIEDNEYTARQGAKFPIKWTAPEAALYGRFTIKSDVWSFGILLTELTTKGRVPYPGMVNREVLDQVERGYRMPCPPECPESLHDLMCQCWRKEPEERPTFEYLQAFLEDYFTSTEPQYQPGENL

[38] = molecular target: Testis-specific serine/threonine-protein kinase 3 (Homo sapiens) (UniProt Q96PN8); conditions: Compound concentration 1000.0 nM
Sequence of Testis-specific serine/threonine-protein kinase 3 (Homo sapiens) (Q96PN8 whole entry): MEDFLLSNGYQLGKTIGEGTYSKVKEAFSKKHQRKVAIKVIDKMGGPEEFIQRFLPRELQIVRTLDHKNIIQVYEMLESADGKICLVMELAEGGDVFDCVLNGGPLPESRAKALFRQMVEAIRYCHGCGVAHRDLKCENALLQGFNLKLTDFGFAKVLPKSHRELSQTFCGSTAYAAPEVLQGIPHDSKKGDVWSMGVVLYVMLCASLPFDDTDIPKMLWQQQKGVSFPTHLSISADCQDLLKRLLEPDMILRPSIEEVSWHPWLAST

[39] = molecular target: Tyrosine-protein kinase TXK (Homo sapiens) (UniProt P42681); conditions: Compound concentration 1000.0 nM
[40] = molecular target: Serine/threonine-protein kinase ULK1 (Homo sapiens) (UniProt O75385); conditions: Compound concentration 1000.0 nM
Sequence of Serine/threonine-protein kinase ULK1 (Homo sapiens) (O75385 whole entry): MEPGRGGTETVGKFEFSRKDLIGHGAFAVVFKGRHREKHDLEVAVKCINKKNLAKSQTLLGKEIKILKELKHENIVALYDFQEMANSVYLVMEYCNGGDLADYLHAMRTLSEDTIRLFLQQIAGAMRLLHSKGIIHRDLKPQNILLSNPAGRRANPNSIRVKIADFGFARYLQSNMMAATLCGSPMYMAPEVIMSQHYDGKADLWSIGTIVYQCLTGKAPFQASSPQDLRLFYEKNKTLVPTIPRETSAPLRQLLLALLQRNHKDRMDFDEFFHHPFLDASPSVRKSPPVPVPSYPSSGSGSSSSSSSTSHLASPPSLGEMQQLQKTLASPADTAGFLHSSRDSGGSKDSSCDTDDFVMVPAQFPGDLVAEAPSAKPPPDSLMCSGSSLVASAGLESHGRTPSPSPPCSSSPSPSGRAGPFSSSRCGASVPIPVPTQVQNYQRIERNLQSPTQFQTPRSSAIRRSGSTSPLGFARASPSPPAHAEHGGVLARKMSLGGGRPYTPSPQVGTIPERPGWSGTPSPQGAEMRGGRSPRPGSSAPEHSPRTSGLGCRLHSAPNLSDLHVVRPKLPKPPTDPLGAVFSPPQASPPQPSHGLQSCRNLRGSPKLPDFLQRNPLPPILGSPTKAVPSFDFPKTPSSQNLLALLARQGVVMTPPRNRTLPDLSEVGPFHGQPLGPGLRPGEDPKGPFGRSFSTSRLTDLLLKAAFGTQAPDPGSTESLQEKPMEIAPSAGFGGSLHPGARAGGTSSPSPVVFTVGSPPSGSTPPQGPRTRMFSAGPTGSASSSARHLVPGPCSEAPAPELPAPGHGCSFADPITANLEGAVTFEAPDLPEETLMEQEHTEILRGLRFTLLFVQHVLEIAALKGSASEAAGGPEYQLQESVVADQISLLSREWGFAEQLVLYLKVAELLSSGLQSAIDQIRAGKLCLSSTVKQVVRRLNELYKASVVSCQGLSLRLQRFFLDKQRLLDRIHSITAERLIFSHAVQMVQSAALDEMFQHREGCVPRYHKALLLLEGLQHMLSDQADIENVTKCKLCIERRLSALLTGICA

[41] = molecular target: Serine/threonine-protein kinase 32B (Homo sapiens) (UniProt Q9NY57); conditions: Compound concentration 1000.0 nM
Sequence of Serine/threonine-protein kinase 32B (Homo sapiens) (Q9NY57 whole entry): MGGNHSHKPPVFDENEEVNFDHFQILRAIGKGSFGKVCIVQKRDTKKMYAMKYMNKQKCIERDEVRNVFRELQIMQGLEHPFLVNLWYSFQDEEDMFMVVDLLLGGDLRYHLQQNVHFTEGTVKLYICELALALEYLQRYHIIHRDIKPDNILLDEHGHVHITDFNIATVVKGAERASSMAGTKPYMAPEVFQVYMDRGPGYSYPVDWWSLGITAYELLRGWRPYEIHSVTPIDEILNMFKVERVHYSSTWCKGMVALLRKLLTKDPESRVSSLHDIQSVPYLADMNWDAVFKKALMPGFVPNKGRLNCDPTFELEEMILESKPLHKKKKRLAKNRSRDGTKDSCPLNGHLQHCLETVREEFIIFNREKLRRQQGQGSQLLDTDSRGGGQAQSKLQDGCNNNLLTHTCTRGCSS

[42] = molecular target: 5-hydroxytryptamine receptor 1D (Homo sapiens, UniProt P28221); conditions: Compound concentration 10.0 uM
Sequence of 5-hydroxytryptamine receptor 1D (P28221 whole entry): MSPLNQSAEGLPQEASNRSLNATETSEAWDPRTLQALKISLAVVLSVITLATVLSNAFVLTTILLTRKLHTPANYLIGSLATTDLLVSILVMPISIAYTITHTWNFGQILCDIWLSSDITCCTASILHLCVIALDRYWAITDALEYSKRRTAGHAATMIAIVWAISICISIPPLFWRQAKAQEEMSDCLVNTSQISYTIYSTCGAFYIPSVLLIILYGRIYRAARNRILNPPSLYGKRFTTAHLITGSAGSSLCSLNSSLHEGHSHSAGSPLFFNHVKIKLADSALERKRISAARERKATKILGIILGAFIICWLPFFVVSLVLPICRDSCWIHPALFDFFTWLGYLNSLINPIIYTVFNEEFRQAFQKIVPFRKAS

[43] = molecular target: D(3) dopamine receptor (Homo sapiens) (UniProt P35462); conditions: Compound concentration 10.0 uM
[44] = molecular target: D(4) dopamine receptor (Homo sapiens) (UniProt P21917); conditions: Compound concentration 10.0 uM
[45] = molecular target: Sodium-dependent dopamine transporter (Homo sapiens) (UniProt Q01959); conditions: Compound concentration 10.0 uM

Sequence of ALK tyrosine kinase receptor (Homo sapiens) (Q9UM73 19-1620 limits assumed): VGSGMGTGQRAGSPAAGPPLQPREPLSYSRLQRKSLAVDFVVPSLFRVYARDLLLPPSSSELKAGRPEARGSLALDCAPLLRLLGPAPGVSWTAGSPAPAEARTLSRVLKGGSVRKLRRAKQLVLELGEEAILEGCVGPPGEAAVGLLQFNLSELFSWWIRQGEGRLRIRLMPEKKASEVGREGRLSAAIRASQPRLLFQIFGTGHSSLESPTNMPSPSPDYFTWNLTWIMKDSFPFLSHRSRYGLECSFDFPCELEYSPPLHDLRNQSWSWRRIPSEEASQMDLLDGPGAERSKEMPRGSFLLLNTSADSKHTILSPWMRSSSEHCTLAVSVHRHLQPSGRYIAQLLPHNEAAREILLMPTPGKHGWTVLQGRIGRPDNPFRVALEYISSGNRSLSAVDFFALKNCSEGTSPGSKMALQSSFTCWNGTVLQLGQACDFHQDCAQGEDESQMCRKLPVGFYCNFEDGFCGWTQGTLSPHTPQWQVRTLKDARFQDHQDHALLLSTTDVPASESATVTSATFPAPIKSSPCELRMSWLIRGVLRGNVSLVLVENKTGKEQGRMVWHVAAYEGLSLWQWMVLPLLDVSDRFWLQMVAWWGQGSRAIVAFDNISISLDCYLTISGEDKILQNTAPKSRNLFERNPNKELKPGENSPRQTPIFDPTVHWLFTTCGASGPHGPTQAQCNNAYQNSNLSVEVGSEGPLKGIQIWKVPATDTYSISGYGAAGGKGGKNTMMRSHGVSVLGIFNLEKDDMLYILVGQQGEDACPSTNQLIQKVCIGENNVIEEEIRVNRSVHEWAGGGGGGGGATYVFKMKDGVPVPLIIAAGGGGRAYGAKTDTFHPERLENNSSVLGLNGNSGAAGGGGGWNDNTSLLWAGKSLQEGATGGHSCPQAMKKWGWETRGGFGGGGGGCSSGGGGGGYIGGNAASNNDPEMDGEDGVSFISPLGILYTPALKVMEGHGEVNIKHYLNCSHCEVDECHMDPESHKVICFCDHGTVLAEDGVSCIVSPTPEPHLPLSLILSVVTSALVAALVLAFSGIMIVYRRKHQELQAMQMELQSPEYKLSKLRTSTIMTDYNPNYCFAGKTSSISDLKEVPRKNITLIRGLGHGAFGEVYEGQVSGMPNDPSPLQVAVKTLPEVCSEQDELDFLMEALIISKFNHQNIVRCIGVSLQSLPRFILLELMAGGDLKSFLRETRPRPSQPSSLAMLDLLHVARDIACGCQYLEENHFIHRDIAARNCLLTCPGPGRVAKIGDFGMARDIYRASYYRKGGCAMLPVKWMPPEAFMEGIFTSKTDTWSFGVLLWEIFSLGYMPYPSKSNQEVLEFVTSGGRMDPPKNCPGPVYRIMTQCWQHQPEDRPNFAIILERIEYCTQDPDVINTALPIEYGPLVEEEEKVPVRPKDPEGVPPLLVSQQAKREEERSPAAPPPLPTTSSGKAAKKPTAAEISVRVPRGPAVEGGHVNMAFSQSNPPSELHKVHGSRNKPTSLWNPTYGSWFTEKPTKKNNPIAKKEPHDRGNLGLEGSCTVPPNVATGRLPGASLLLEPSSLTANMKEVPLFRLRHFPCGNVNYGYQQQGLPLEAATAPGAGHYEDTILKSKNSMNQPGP

`Cn1nc(C(F)(F)F)cc1-c1cnc(N2CCc3cc(S(=O)(=O)Nc4c(F)cc(Cl)cc4F)cc(N4CCCC4=O)c32)nc1` [TP-020] was tested, and the residual activity [1] was 80%, the residual activity [2] was 88% and the residual activity [3] was 79%. It also gave a residual activity [4] of 91%, a residual activity [5] of 86% and a residual activity [6] of 84%. For the same compound, the residual activity [7] was 100%, the residual activity [8] was 86% and the residual activity [9] was 95%. For the same compound, the residual activity [10] was 82%, the residual activity [11] was 100% and the residual activity [12] was 100%. For the same compound, the residual activity [13] was 85%, the residual activity [14] was 85% and the residual activity [15] was 74%. The residual activity [16] was 68%, the residual activity [17] was 81% and the residual activity [18] was 94%. For the same compound, the residual activity [19] was 93%, the residual activity [20] was 91% and the residual activity [21] was 100%. It also gave a residual activity [22] of 100%, a residual activity [23] of 73% and a residual activity [24] of 92%. The residual activity [25] was 88%, the residual activity [26] was 94% and the residual activity [27] was 100%. For the same compound, the residual activity [28] was 94%, the residual activity [29] was 92% and the residual activity [30] was 79%. It also gave a residual activity [31] of 100%, a residual activity [32] of 90% and a residual activity [33] of 82%. The residual activity [34] was 93%, the residual activity [35] was 97% and the residual activity [36] was 99%. It also gave a residual activity [37] of 100%, a residual activity [38] of 94% and a residual activity [39] of 100%. The residual activity [40] was 79%, the residual activity [41] was 95% and the inhibition [42] was 55.3%. For the same compound, the inhibition [43] was 2.14%, the inhibition [44] was 9.09% and the inhibition [45] was 14.5%.

Work on `Nc1cnc(N2CCc3cc(S(=O)(=O)Nc4c(F)cc(Cl)cc4F)cc(N4CCCC4=O)c32)nc1` yielded a residual activity [1] of 100%, a residual activity [2] of 100% and a residual activity [3] of 100%. It also gave a residual activity [4] of 100%, a residual activity [5] of 89% and a residual activity [6] of 98%. For the same compound, the residual activity [7] was 100%, the residual activity [8] was 85% and the residual activity [9] was 100%. The residual activity [10] was 100%, the residual activity [11] was 100% and the residual activity [12] was 100%. For the same compound, the residual activity [13] was 100%, the residual activity [14] was 99% and the residual activity [15] was 100%. For the same compound, the residual activity [16] was 99%, the residual activity [17] was 96% and the residual activity [18] was 95%. The residual activity [19] was 83%, the residual activity [20] was 100% and the residual activity [21] was 96%. It also gave a residual activity [22] of 85%, a residual activity [23] of 100% and a residual activity [24] of 76%. For the same compound, the residual activity [25] was 100%, the residual activity [26] was 69% and the residual activity [27] was 100%. For the same compound, the residual activity [28] was 95%, the residual activity [29] was 100% and the residual activity [30] was 75%. It also gave a residual activity [31] of 89%, a residual activity [32] of 100% and a residual activity [33] of 100%. For the same compound, the residual activity [34] was 75%, the residual activity [35] was 100% and the residual activity [36] was 93%. For the same compound, the residual activity [37] was 99%, the residual activity [38] was 100% and the residual activity [39] was 83%. It also gave a residual activity [40] of 95%, a residual activity [41] of 74% and an inhibition [42] of 9.24%. It also gave an inhibition [43] of 7.41%, an inhibition [44] of -5.02% and an inhibition [45] of 20.2%.
